# Assay results: patent US20160367497A1, “METHODS AND COMPOSITIONS FOR TREATING NEUROPATHIES” (Washington University, priority 2007, published 2016)
# How the values were obtained:
# [1] = system: DRG neuronal explant cultures; assay: in vitro Wallerian degeneration assay, DRG explant neurite transection; format: cell-based, mouse; settings: lentivirus-mediated expression in DRG neurons
# Protocol: To identify the mechanism of delayed axonal degeneration mediated by the Wlds protein, we employed an in-vitro Wallerian degeneration model. Primary DRG explant neurons were infected with lentivirus expressing the appropriate proteins, and axons were injured by either removal of the neuronal cell body (transection) or growth in vincristine (toxic).
# Mouse DRG explants from E12.5 embryos were cultured in the presence of 1 nM nerve growth factor. Non-neuronal cells were removed from the cultures by adding 5-fluorouracil to the culture medium. Transection of neurites was performed at 10-20 DIV using an 18-gauge needle to remove the neuronal cell bodies. Incubation with β-nicotinamide adenine dinucleotide (Sigma) or Sirtinol (Calbiochem) was performed using conditions indicated in the text or figures.
# Quantitative analysis of axonal degeneration was performed as previously described (Zhai, et al., Neuron 39:217-25, 2003). Briefly, the cultures were examined using phase contrast microscopy at the indicated times. Axons with a fragmented, non-refractile appearance were designated as “degenerated.” At each time point, at least 200 singly distinguishable axons were blindly scored from several randomly taken images of each culture. Each condition was tested in triplicate explants in each experiment. Results were obtained from 2-4 independent experiments for each condition. Statistical analysis was performed by Student's T test. For calculations of neurite-covered area, digitally captured images from quadruplicate samples of two independent experiments were analyzed using analysis 3.1 software (Soft Imaging System, Lakewood, Colo.).
# Cell culture, in vitro axotomy, and quantification of axonal degeneration. Mouse DRG explants from E12.5 embryos were cultured in the DMEM containing 10% FCS and 1 nM nerve growth factor. Non-neuronal cells were removed from the cultures by adding 5-fluorouracil to the culture media. Transection of neurites was performed at 14-21 DIV using an 18-gauge needle to remove the neuronal cell bodies. Lentiviral expression vectors were generated. Lentiviral infection was performed 3-7 days prior to axonal transection for 24 hr. Quantitative analysis of neurite degeneration was performed.
# [2] = NMNAT enzymatic assay (NAD production); format: biochemical; settings: protein from HEK293/HEK293T cells; NAD generated in 1 h
# Protocol: […]
# NMNAT protein overexpression, affinity purification and enzymatic assay. […] Relative NMNAT enzymatic activity was measured by using affinity purified proteins as described before and subtracted the value obtained from mock transfected cells and normalized by the amount of recombinant protein determined by densitometry.
substance,measurement,setting,value
NMNAT3: murine nicotinamide mononucleotide adenylyltransferase3,axonal/neurite degeneration after transection,[1],same extent of delay in neurite degeneration as well as NMNAT1
same,NMNAT enzymatic activity (NAD synthesis),[2],comparable enzymatic activity compared with NMNAT1
